Experiment: mn = molality of the nth substance listed, in mol/kg
Settings: 298.15 K, 101 kPa, Liquid, Rudolph densimeter

O=[N+]([O-])[O-].O=[N+]([O-])[O-].[Mg+2] [magnesium nitrate] + CO
Settings | mass density [kg/m3]
m1 = 0.0067 | 787.75
m1 = 0.0135 | 788.44
m1 = 0.0203 | 789.09
m1 = 0.0271 | 789.77
m1 = 0.0339 | 790.43
m1 = 0.0373 | 790.75
m1 = 0.0407 | 791.07
m1 = 0.0441 | 791.39
m1 = 0.0475 | 791.72
m1 = 0.051 | 792.03
m1 = 0.0544 | 792.33
m1 = 0.0578 | 792.66
m1 = 0.0612 | 792.95
m1 = 0.0647 | 793.26
m1 = 0.0681 | 793.56

[Cl-].[Cl-].[Mg+2] [magnesium chloride] + CO
Settings | mass density [kg/m3]
m1 = 0.0105 | 788.19
m1 = 0.021 | 789.37
m1 = 0.0316 | 790.72
m1 = 0.0422 | 791.97
m1 = 0.0528 | 793.43
m1 = 0.0581 | 794.28
m1 = 0.0634 | 795.32
m1 = 0.0687 | 796.28
m1 = 0.074 | 796.94
m1 = 0.0794 | 797.82
m1 = 0.0847 | 798.59
m1 = 0.09 | 799.4
m1 = 0.0954 | 800.16

O=[N+]([O-])[O-].O=[N+]([O-])[O-].[Zn+2] [nitric acid, zinc salt] + CO
Settings | mass density [kg/m3]
m1 = 0.0053 | 787.73
m1 = 0.0106 | 788.43
m1 = 0.0159 | 789.11
m1 = 0.0212 | 789.81
m1 = 0.0265 | 790.47
m1 = 0.0292 | 790.79
m1 = 0.0319 | 791.13
m1 = 0.0346 | 791.46
m1 = 0.0372 | 791.79
m1 = 0.0399 | 792.11
m1 = 0.0426 | 792.44
m1 = 0.0453 | 792.76
m1 = 0.048 | 793.07
m1 = 0.0507 | 793.39
m1 = 0.0533 | 793.72
m1 = 0.0804 | 796.87

Source: the NIST ThermoML archive (doi:10.1016/j.fluid.2014.07.005)
